{"source": "patent US12544325B2", "about": "“Compositions and related methods” (Colgate-Palmolive Company, priority 2020, dated 2026)", "key": {"[1]": {"experiment": "Dissolution of amine fluoride in water with addition of alkali salts", "source_text": "Similar formulations are created also containing one or more alkali salts, selected from sodium chloride, potassium chloride and trisodium citrate dihydrate to investigate the effect of the salts' presence on solubility of the amine fluoride."}, "[2]": {"experiment": "Dissolution of amine fluoride in water without additional salts (saturation concentration)", "conditions": "no salts", "procedure": "Amine fluoride is added in increasingly greater amounts to determine its saturation concentration, shown below in Table 1A."}, "[3]": {"conditions": "background statement; cited from earlier work"}, "[4]": {"experiment": "Dissolution of tertiary amine in water without inorganic salts, with or without HCl", "assay_type": "physicochemical", "source_text": "Similar compositions were created as those listed in Table 1A, but instead of amine fluoride, a tertiary amine was used."}, "[5]": {"experiment": "Dissolution of tertiary amine with HCl and sodium fluoride, without and with sodium chloride", "assay_type": "physicochemical", "conditions": "hydrochloric acid, sodium fluoride and alkali salt added; compared to absence of additional inorganic salts", "source_text": "A new batch of solutions was created similar to those shown in Table 2B, but with the addition of sodium fluoride."}, "[6]": {"experiment": "Dissolution of tertiary amine with HCl and addition of alkali salts", "assay_type": "physicochemical", "method": "Further compositions containing the tertiary amine and hydrochloric acid were created. To these solutions, various quantities of alkali salts were added to evaluate the effect on solubility of the tertiary amine."}, "[7]": {"conditions": "when adding sodium chloride (composition 10)"}, "[8]": {"conditions": "with hydrochloric acid and about 5% alkali salt (composition 34)"}}}
{"smiles": "CCCCCCCCCCCCCCCCCCN(CCO)CCCN(CCO)CCO.F.F", "note": "[amine fluoride, N′-octadecyltrimethylendiamine-N,N,N′-tris(2-ethanol)-dihydrofluoride]", "values": [{"measurement": "lowest concentration of sodium chloride shown to increase solubility of amine fluoride in water", "setting": "[1]; sodium chloride", "value": "about 0.7%"}, {"measurement": "solubility of amine fluoride in water", "setting": "[1]; [7]", "value": "above 35 % by weight"}, {"measurement": "solubility of amine fluoride in water as concentration of tertiary amine", "setting": "[1]; [7]", "value": "about 640 mM"}, {"measurement": "maximum solubility of amine fluoride in water", "setting": "[2]", "value": "approximately 24 % by weight"}, {"measurement": "maximum solubility of amine fluoride in water as concentration of tertiary amine", "setting": "[2]; amine fluoride fully dissociated from hydrofluoride", "value": "about 440 mM"}, {"measurement": "aqueous solubility", "setting": "[3]", "value": "very low aqueous solubility"}]}
{"smiles": "CCCCCCCCCCCCCCCCCCN(CCO)CCCN(CCO)CCO", "note": "[tertiary amine, N′-octadecyltrimethylendiamine-N,N,N′-tris(2-ethanol)]", "values": [{"measurement": "solubility of tertiary amine as concentration", "setting": "[4]; with hydrochloric acid corresponding to hydronium level of equivalent amine fluoride", "value": "about 530 mM"}, {"measurement": "solubility of tertiary amine", "setting": "[4]; with hydrochloric acid corresponding to hydronium level of equivalent amine fluoride (compositions 21-23)", "value": "above 24%"}, {"measurement": "solubility of the tertiary amine in water", "setting": "[4]; without adjustment of pH", "value": "about 70 % by weight"}, {"measurement": "solubility of the tertiary amine in water as concentration", "setting": "[4]; without adjustment of pH", "value": "about 1520 mM"}, {"measurement": "change of solubility of the tertiary amine", "setting": "[5]", "value": "not increased any further"}, {"measurement": "minimum addition of Sodium Chloride to fully dissolve 34% of tertiary amine", "setting": "[6]; with hydrochloric acid", "value": "about 1%"}, {"measurement": "solubility of tertiary amine in water", "setting": "[6]; [8]", "value": "about 40 % by weight"}, {"measurement": "solubility of tertiary amine in water as concentration", "setting": "[6]; [8]", "value": "about 870 mM"}]}
